What was measured:
human CYP1A2 = molecular target: T1, human CYP1A2 (Homo sapiens, UniProt P05177)
T1 sequence (P05177 1-516): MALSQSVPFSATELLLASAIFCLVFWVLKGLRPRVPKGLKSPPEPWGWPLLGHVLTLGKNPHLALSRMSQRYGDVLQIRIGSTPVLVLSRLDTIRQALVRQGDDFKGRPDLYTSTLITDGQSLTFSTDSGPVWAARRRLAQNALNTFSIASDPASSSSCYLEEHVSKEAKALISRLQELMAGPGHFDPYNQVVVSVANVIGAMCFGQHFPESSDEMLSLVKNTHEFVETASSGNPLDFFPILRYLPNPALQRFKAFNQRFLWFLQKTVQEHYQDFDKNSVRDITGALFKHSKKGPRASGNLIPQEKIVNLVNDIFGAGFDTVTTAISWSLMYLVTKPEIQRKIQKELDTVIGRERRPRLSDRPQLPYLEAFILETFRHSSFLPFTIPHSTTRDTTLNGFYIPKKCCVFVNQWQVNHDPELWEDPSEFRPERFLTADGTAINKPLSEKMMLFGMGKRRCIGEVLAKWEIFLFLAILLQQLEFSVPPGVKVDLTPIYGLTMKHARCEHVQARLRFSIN

human CYP2D6 = human CYP2D6 (Homo sapiens, UniProt P10635)
Chain of human CYP2D6 (P10635 whole entry): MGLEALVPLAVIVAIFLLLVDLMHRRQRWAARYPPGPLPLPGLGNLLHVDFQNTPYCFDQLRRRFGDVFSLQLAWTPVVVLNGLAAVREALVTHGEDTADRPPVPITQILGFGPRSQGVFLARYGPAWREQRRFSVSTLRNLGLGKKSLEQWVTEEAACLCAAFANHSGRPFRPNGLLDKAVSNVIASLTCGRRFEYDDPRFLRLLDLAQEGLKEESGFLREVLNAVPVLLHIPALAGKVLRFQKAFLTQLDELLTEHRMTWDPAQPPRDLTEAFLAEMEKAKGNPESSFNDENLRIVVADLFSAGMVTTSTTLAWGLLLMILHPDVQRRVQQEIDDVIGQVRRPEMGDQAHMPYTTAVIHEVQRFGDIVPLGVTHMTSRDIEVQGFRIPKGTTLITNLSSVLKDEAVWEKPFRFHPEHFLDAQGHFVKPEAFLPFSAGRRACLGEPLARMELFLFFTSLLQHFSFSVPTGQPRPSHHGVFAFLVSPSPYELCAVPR

human CYP2C19 = human CYP2C19 (Homo sapiens, UniProt P33261)
Chain of human CYP2C19 (P33261 whole entry): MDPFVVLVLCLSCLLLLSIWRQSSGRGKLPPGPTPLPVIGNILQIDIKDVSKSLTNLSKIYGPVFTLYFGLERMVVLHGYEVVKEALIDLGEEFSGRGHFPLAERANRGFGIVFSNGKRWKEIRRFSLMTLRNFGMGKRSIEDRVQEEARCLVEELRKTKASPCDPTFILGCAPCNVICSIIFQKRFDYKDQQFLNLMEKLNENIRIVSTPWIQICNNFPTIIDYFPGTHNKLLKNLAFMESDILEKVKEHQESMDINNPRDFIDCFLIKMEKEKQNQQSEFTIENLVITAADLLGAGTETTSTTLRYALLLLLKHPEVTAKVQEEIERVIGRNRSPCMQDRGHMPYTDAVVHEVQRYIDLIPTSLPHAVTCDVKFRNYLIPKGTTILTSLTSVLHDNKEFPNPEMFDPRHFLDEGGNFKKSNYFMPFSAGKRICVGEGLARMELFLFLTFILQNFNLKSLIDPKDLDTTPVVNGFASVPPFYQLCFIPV

human CYP2C9 = human CYP2C9 (Homo sapiens, UniProt P11712)
Chain of human CYP2C9 (P11712 whole entry): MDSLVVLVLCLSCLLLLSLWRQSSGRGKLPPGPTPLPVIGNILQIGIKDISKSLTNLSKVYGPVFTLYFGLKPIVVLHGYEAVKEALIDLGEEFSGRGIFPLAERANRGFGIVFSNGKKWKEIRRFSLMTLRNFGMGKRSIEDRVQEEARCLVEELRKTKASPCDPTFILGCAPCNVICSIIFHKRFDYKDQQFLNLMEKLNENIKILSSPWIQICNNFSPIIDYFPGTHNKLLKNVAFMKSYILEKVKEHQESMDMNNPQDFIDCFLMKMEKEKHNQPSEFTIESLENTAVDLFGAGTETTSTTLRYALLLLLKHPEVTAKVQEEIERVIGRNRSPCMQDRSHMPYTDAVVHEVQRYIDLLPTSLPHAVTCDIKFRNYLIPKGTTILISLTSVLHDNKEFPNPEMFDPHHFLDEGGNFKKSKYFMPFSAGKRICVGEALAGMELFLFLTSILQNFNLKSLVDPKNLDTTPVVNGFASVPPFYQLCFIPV

CYP3A4 = CYP3A4 (Homo sapiens, UniProt P08684)
Chain of CYP3A4 (P08684 whole entry): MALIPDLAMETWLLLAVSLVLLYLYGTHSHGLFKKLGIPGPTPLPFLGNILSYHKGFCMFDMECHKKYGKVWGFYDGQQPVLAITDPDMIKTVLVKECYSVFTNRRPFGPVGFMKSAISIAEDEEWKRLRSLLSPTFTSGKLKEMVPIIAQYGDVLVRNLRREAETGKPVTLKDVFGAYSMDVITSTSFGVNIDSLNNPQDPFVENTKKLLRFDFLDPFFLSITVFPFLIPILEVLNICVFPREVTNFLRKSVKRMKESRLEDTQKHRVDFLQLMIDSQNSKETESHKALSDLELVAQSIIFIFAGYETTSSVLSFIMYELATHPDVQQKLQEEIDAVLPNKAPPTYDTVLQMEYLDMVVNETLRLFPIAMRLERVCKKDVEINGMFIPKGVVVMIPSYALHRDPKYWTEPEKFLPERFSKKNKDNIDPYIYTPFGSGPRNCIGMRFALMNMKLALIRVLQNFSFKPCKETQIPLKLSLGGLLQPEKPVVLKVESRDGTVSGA

SMILES	AC50 (human CYP1A2)	CYP2D6 AC50 (half-maximal activity concentration) (human CYP2D6)	AC50 (human CYP2C19)	AC50 (human CYP2C9)	AC50 (CYP3A4)	CYP3A4 AC50 (half-maximal activity concentration) (CYP3A4)	CYP2C19 AC50 (half-maximal activity concentration) (human CYP2C19)	CYP2C9 AC50 (half-maximal activity concentration) (human CYP2C9)	CYP1A2 AC50 (half-maximal activity concentration) (human CYP1A2)	AC50 (human CYP2D6)
CCC(CC)Nc1ccc(C)c(C)c1 [N-(1-Ethylpropyl)-3,4-xylidine]	11.6 µM	Inconclusive inhibitor	10.7 µM	33.6 µM	1.45 µM	–	–	–	–	–
CCNS(=O)(=O)c1ccc(C)cc1 [N-Ethyl-4-methylbenzenesulfonamide]	41.1 µM	Inconclusive inhibitor	25.9 µM	32 µM	–	Inactive	–	–	–	–
CC(C)N1C(=O)c2ccccc2C1=O [N-Isopropylphthalimide]	35.6 µM	Inactive	–	–	57.7 µM	–	Inactive	Inconclusive inhibitor	–	–
O=C(O)C[C@H](NC(=O)OCc1ccccc1)C(=O)O [N-[(Benzyloxy)carbonyl]-L-aspartic acid]	–	Inactive	–	–	35.5 µM	–	Inactive	Inactive	Inactive	–
C[C@]12CC[C@H]3[C@@H](CCC4=CC(=O)CC[C@@H]43)[C@@H]1CC[C@@H]2OC(=O)CCC1CCCCC1 [Nandrolone cyclohexylpropionate]	26.8 µM	Inactive	–	17.4 µM	4.56 µM	–	Inconclusive inhibitor	–	–	–
CC(C)(COC(=O)c1ccccc1)COC(=O)c1ccccc1 [Neopentyl glycol dibenzoate]	47.7 µM	Inactive	20.8 µM	6.58 µM	35.7 µM	–	–	–	–	–
Cc1cc(C)nc(O)n1.O=C(Nc1ccc([N+](=O)[O-])cc1)Nc1ccc([N+](=O)[O-])cc1 [Nicarbazin]	–	Inactive	–	–	7.42 µM	–	Inconclusive inhibitor	Inactive	Inactive	–
O=C(O)C(F)(F)C(F)(F)C(F)(F)C(F)(F)C(F)(F)F [PFHxA]	–	Inconclusive inhibitor	–	17.5 µM	58.1 µM	–	Inactive	–	Inactive	–
N.O=C(O)C(F)(F)C(F)(F)C(F)(F)C(F)(F)C(F)(F)C(F)(F)C(F)(F)F [PFOA, ammonium salt]	–	Inactive	60.8 µM	1.78 µM	76.8 µM	–	–	–	Inactive	–
O=C(O)C(F)(F)C(F)(F)C(F)(F)C(F)(F)C(F)(F)C(F)(F)C(F)(F)F [PFOA]	–	Inactive	–	2.52 µM	70.8 µM	–	Inactive	–	Inactive	–
CCOC(=O)c1ccc(N(C)C)cc1 [Parbenate]	4.68 µM	Inactive	21.6 µM	31.9 µM	47.9 µM	–	–	–	–	–
O=C(OCCCCCOC(=O)c1ccccc1)c1ccccc1 [Pentane-1,5-diyl dibenzoate]	8.29 µM	Inactive	48.1 µM	10.5 µM	26.9 µM	–	–	–	–	–
CN1C(=O)N(c2ccccc2Br)Cc2cnc(Nc3ccc4c(c3)OCC(CO)O4)nc21 (stereo not shown) [PharmaGSID_48519]	30.7 µM	–	5.72 µM	12.2 µM	1.4 µM	–	–	–	–	56.6 µM
CC(C)C(=O)OCCOc1ccccc1 [Phenoxyethyl isobutyrate]	31.9 µM	Inactive	38.5 µM	36 µM	22.6 µM	–	–	–	–	–

Source: article PMC12155096 (International Journal of Molecular Sciences, 2025)
